Values of other authors, collected in patent US10138221B2, “Salts of nilotinib and polymorphs thereof” (Sun Pharmaceutical Industries Limited, priority 2014, dated 2018).
Read-outs that look alike come from different tables or passages of the source.

Experiments:
[1] = low solubility/low permeability

- Biopharmaceutics Classification System (BCS) class (solubility/permeability) [1]: class IV
- solubility (acidic media): soluble
- solubility (buffer solutions of pH 4.5 and higher): practically insoluble
SMILES: Cc1cn(-c2cc(NC(=O)c3ccc(C)c(Nc4nccc(-c5cccnc5)n4)c3)cc(C(F)(F)F)c2)cn1 [Nilotinib, 4-methyl-N-[3-(4-methyl-1H-imidazol-1-yl)-5-(trifluoromethyl)phenyl]-3-[[4-(3-pyridinyl)-2-pyrimidinyl]amino]-benzamide]
